Columns and labels:
E. coli K1 strain UTI89 [1] = experiment: microbe, parasite or virus in culture; conditions: for % Inhibition at 100 μM: HTS primary screen
Text: The ability of the […] to bind to bacterial capsule, infect, and lyse E. coli UT189 was used as the primary assay to identify the effects of screened compounds on bacterial capsule formation. The phenotypic end-point assay measured the fluorescence generated by cellular processing of Alamar Blue as a direct indicator of cell viability. A total of […] compounds were screened using the primary assay. […] Hits were further evaluated using […] secondary assays for alternative measurement of compound-induced reduction in bacterial capsule formation (secondary assays 1 and 2) and specificity (secondary assays 3 and 4). Confirmed actives with an SI>5 were further investigated and subjected to chemical optimization, followed by secondary assay evaluation. Secondary assays more closely characterized the ability of the compounds to reduce bacterial capsule formation and can be used to examine the mechanism of action of the compounds. The combination of primary assay (to measure capsule reduction), counter assay (for general eukaryotic cell toxicity) and secondary assay (to measure reduction in capsule formation and specificity) were combined to allow a determination of probe efficacy, selectivity, and specificity.
A. Primary Assay: Screening for Inhibitors of Bacterial Capsule Biogenesis.
Primary assay: An end-point assay to measure the amount of K1 phage-induced bacterial cell lysis was employed to determine the compound effect on capsule biogenesis. K1 bacteriophage specifically binds the bacterial capsule during the initial stages of infection. Bacteria without capsule cannot be infected and lysed by the bacteriophage. […] A total of 338,740 compounds were screened at 100 μM in the primary screen Inhibition of phage lysis was calculated relative to the mean of the bacterial (positive) control on each microtiter plate. […] For calculation of S/B/Z value, and CV, the following formulae (in which SD stands for standard deviation) were used: S/B=mean signal/mean background; Z=1-3SD of sample+3SD of control mean of sample−mean of control; % CV=(SD mean signal/mean signal)×100.
IC50 values were calculated using a 4 parameter Levenburg-Marquardt algorithm, with the maximum and minimum locked at 0 and 100 respectively.
Primary assay: The primary assay was conducted in the 1,536 well plate format. Bacterial cultures of E. coli K1 strain UTI89 (cystitis isolate) and isogenic capsule mutant strains (as controls for phage infection) were grown and prepared at the screening center immediately prior to use. Overnight starting cultures of UTI89 were grown at 37° C., and inoculated into 1 liter of LB (starting OD600˜0.03), which was sufficient for screening 40 plates (including ˜10% waste) and ˜40,000 compounds as single points.
Control wells contained UTI89 (wt K1) with 0.5% DMSO as a simulated positive control; UTI89 with 0.5% DMSO and tetracycline for a negative growth control; and media plus vehicle control. 50 mL of LB Broth was inoculated with stock 150 μL E. coli UT189 and grown overnight at 37° C. The next day, cultures were diluted 1:75 in 1 L of LB Broth containing 0.5% DMSO. 3 μL of this culture was added to each plate well, and plates were incubated, inverted, at 37° C. for 2 hr. The K1F bacteriophage stock was diluted 1:8 in LB Broth containing 0.5% DMSO, and 1.5 μL of diluted phage (or media only) was added to the pre-plated test compound wells and appropriate control wells. The plates were centrifuged briefly, and then were incubated, inverted, at 37° C. for an additional 2 hr. Afterward, Alamar Blue reagent (Invitrogen, #DAL1100) was diluted 1:2 with LB broth and 1 μL was added to each plate well.

E. coli K1 strain UTI89 [2] = experiment: Secondary assay 2: T7 phage-mediated lysis assay; format: cell-based, Escherichia coli; conditions: read-out: T7 phage IC50
Text: D. Secondary Assay 2: Screening for Inhibitors of Bacterial Capsule Biogenesis—T7 Lysis Inhibition
Purpose: This secondary assay measures the compound mechanistic specificity for inhibition of bacterial capsule formation and excludes inhibitors of phage replication using a different bacteriophage (T7). In this assay, an increase in phage-induced lysis correlates to a decrease in capsule formation.
Purpose: This secondary assay measures the compound mechanistic specificity for inhibition of bacterial capsule formation using a different bacterial phage (T7). In this assay, an increase in phage-induced lysis correlates to a decrease in capsule formation.
Assay Description: T7 phage-mediated lysis assay: This assay determined if the mechanism of action of the compound is inhibition of phage infectivity or replication. The T7 phage has a nearly identical genome to K1F, without encoding an endosialidase. Its cycle of replication is similar to that of K1F as well. However, T7 entry into E. coli is inhibited by K capsules. This secondary assay was conducted in the 96 well plate format. […] Compounds were added in quadruplicate to plates in a concentration dependent manner in the range of 100-0.39 μM, followed by addition of 100 μL of bacterial culture. 1% DMSO (final well concentration) was included. The plates were tape sealed and shaken vigorously for 1.5 hr. An initial OD600 reading was measured to identify compounds that cause growth retardation or bacterial killing in the absence of phage. Next, T7 phage (5 μL) was added to all of the test wells. The plates were resealed and shaken vigorously at 37° C., and measurements of OD600 for phage-mediated lysis were taken after 3 hr. True inhibitors of capsule yielded bacteria that were susceptible to T7 phage and lysed within 2 hr of the addition of phage. […] The positive control drug C7 (100 μM final well concentration) was used in this screen.
T7 phage counter assay. This secondary assay was performed as previously described and was used to distinguish compounds with phage inhibitory effects from true polysaccharide capsule inhibitors. […] Thus, the presence of a capsule inhibits T7-mediated lysis. In this assay, an increase in phage-induced lysis correlates to a decrease in capsule formation. True inhibitors of capsule yielded bacteria that were susceptible to T7 phage and lysed within 2 hr of the addition of phage. […] The positive control molecule C7 (100 μM final well concentration) was used in this screen.

[3] = test system: Bladder carcinoma 5637 cells; experiment: Cytotoxicity counterscreen, CellTiter Glo, 72 hr; format: cell-based, human
Description: B. Counterscreen: Cytotoxicity Screening for Potential Inhibitors of Bacterial Capsule Biogenesis.
Purpose: This cell-based assay measures the cytotoxicity of compounds in bladder carcinoma 5637 cells using luminescent cell viability assay readout.
Cytotoxicity assay: The cytotoxicity assay was performed as described in Section 6: Appendix. Hit cytotoxicity and the 50% toxic concentration (CC50) was determined and compared to the IC50 to calculate the selectivity index.
Assay Description: Cytotoxicity: Dose response testing (dose range=300-0.58 μM) established the hit cytotoxicity data. Compounds were plated in 384-well microplates in a stacked dose response format using the same doses used in the efficacy dose response. Bladder carcinoma 5637 cells were added to the compounds, and 72 hr later cell viability was measured using CellTiter Glo (38). Hit cytotoxicity and the 50% toxic concentration (TC50) was determined and compared to the IC50 to calculate the therapeutic index. Test compounds are serially diluted in a plate to plate matrix or stacked plate matrix. All 320 compounds in a source plate are diluted together resulting in a 10 point dose response dilution series. It is visualized as a serial dilution series proceeding vertically through a stack of plates with the high dose plate on top and the low dose plate on the bottom.
Control Drug: Hyamine was used as a positive cytotoxic control. All wells contained 0.5% DMSO.
Preparation of Bladder carcinoma 5637 cells: Cells are harvested and resuspended to 80,000 cells per ml in Complete DMEM/F12®.
Endpoint Read: Following the three day incubation period, the assay plates were equilibrated to room temperature for 30 min and an equal volume (30 μL) of Cell Titer-Glo® reagent (Promega Inc.) is added to each well using a WellMate™ (Matrix, Hudson, N.H.) and plates are incubated for an additional 10 min at room temperature. At the end of the incubation, luminescence is measured using a Perkin Elmer Envision™ multi-label reader (PerkinElmer, Wellesley, Mass.) with an integration time of 0.1 s.
Cytotoxicity. Testing was performed essentially as previously described. Concentration-response testing was performed over a range 0.58-300 μM in a […] well plate format. Bladder carcinoma 5637 cells (ATCC HTB-9) were added to the compounds, and 72 hrs later cell viability was measured using CellTiter Glo (Promega). The 50% toxic concentration (TC50) was determined and compared to the IC50 to calculate the therapeutic index. Hyamine was used as a positive cytotoxic control. All wells contained 0.5% DMSO.

[4] = read-out: K1 phage IC50 (inhibition of K1 capsule formation)
[5] = purchased analogue series, n = 2
[6] = read-out: K1 phage IC50, purchased analogue series, n = 3
[7] = first round of synthetic analogues, n = 2
[8] = read-out: K1 phage IC50, first round of synthetic analogues, n = 3

SMILES	IC50 [3] [µM]	IC50 (E. coli K1 strain UTI89 [2]; [5]) [µM]	IC50 (E. coli K1 strain UTI89 [1]; [6]) [µM]	further results
CCOc1ccc(-c2cc(NC(=O)c3c(F)cccc3F)c(C(=O)OC)s2)cc1 [CID 16012549]	–	–	–	IC50 (E. coli K1 strain UTI89 [1]; [4]): > 100 µM
CCOc1ccc(-c2cc(NC(=O)c3ccc(Br)o3)c(C(=O)O)s2)cc1 [CID 23602086, 3-(5-Bromofuran-2-carboxamido)-5-(4-ethoxyphenyl)thiophene-2-carboxylic acid]	–	–	–	IC50 (E. coli K1 strain UTI89 [2]; Escherichia coli): < 10 µM; IC50 (E. coli K1 strain UTI89 [1]; [4]): 3.42 µM
COc1ccc(-c2cc(NC(=O)c3c(F)cccc3F)c(C(=O)O)s2)cc1 [CID 53470430]	–	–	–	IC50 (E. coli K1 strain UTI89 [1]; [4]): > 100 µM
O=C(O)c1sc(-c2ccc(OCC(F)(F)F)cc2)cc1NC(=O)c1c(F)cccc1F [CID 56643002]	–	–	–	IC50 (E. coli K1 strain UTI89 [1]; [4]): 2.86 µM
CCCCOc1ccc(-c2cc(NC(=O)c3c(F)cccc3F)c(C(=O)O)s2)cc1 [CID 56643007]	–	–	–	IC50 (E. coli K1 strain UTI89 [1]; [4]): < 0.78 µM
O=C(O)c1sc(-c2ccc(OCCC(F)(F)F)cc2)cc1NC(=O)c1c(F)cccc1F [CID 56643020]	–	–	–	IC50 (E. coli K1 strain UTI89 [2]): < 0.156 µM; IC50 (E. coli K1 strain UTI89 [1]; [4]): 0.84 µM; Cytotoxicity CC50 / TC50 / IC50 ([3]; bladder carcinoma 5637 cells): 68.41 µM
CCCCOc1ccc(-c2cc(NC(=O)c3ccc(Br)o3)c(C(=O)O)s2)cc1 [CID 56643021]	43.4	–	–	IC50 (E. coli K1 strain UTI89 [2]; second round of synthetic analogues, n = 2): < 0.625 µM; IC50 (E. coli K1 strain UTI89 [1]; [4]): 0.85 µM
O=C(Nc1cc(-c2ccc(OCCC(F)(F)F)cc2)sc1C(=O)O)c1ccc(Br)o1 [CID 56643022]	41.7	–	–	IC50 (E. coli K1 strain UTI89 [2]; five probe analogues): < 0.625 µM; IC50 (E. coli K1 strain UTI89 [1]; read-out: K1 phage IC50, five probe analogues): 0.84 µM
O=C(O)c1sc(-c2ccc(OCCCC(F)(F)F)cc2)cc1NC(=O)c1c(F)cccc1F [CID 56643024]	–	–	–	IC50 (E. coli K1 strain UTI89 [1]; [4]): 10.3 µM
[N-]=[N+]=NCCOc1ccc(-c2cc(NC(=O)c3c(F)cccc3F)c(C(=O)O)s2)cc1 [CID 56643025]	–	–	–	IC50 (E. coli K1 strain UTI89 [1]; Escherichia coli, read-out: K1 phage IC50 (inhibition of K1 capsule formation)): ~17 µM
COC(=O)c1sc(-c2ccc(Cl)cc2)cc1NC(=O)c1ccccc1C(=O)O [compound 2814791]	–	–	–	% Inhibition at 100 μM (E. coli K1 strain UTI89 [1]): −0.17%
COC(=O)c1sc(-c2ccccc2)cc1NC(=O)c1ccc(F)cc1 [compound 3669658]	–	–	–	% Inhibition at 100 μM (E. coli K1 strain UTI89 [1]): 2.58%
COC(=O)c1sc(-c2ccccc2)cc1NC(C)=O [compound 4114774]	–	–	–	% Inhibition at 100 μM (E. coli K1 strain UTI89 [1]): 0.68%
COC(=O)c1sc(-c2ccccc2)cc1NC(=O)c1ccccc1 [compound 6710528]	–	–	–	% Inhibition at 100 μM (E. coli K1 strain UTI89 [1]): 4.18%
O=C(Nc1cc(-c2ccccc2)sc1C(=O)O)c1cccs1 [compound 9945365]	62	6.9	75.4	–
CCOc1ccc(-c2cc(NC(=O)c3c(F)cccc3F)c(C(=O)OC)s2)cc1 [compound 16012549]	> 300	–	> 100	–
O=C(O)c1sc(-c2ccccc2)cc1NC(=O)C1CCCCC1 [compound 16393057]	115	65.2	> 100	–
O=C(O)c1sc(-c2ccccc2)cc1NC(=O)C1CCCC1 [compound 16393058]	169	56.6	> 100	–
Cc1c(C(=O)Nc2cc(-c3ccccc3)sc2C(=O)O)oc2ccccc12 [compound 17546661]	48.7	33.3	> 100	–
Cc1ccc(C(=O)Nc2cc(-c3ccccc3)sc2C(=O)O)s1 [compound 17546665]	63.6	29.7	> 100	–
O=C(Nc1cc(-c2ccccc2)sc1C(=O)O)c1ccc(Cl)s1 [compound 17547200]	71.5	15.1	> 100	–
O=C(Nc1cc(-c2ccccc2)sc1C(=O)O)c1cc2ccccc2o1 [compound 17548073]	167	6.7	> 100	–
CCOc1ccc(-c2cc(NC(=O)c3cccc(F)c3)c(C(=O)O)s2)cc1 [compound 23602076]	61.3	–	–	IC50 (E. coli K1 strain UTI89 [2]; [7]): 2.61 µM; IC50 (E. coli K1 strain UTI89 [1]; [8]): 14.7 µM
O=C(Nc1cc(-c2ccccc2)sc1C(=O)O)c1cccc(Cl)c1 [compound 23602077]	43.8	34.4	84.5	–
CCOc1ccc(-c2cc(NC(=O)c3ccc(OC)c(OC)c3)c(C(=O)O)s2)cc1 [compound 23602082]	72.3	8	57.9	–
CCOc1ccc(-c2cc(NC(=O)c3ccc(Br)o3)c(C(=O)O)s2)cc1 [compound 23602086]	68.7	–	–	IC50 (E. coli K1 strain UTI89 [2]; [7]): < 0.625 µM
CCOc1ccc(-c2cc(NC(=O)c3ccc(Br)s3)c(C(=O)O)s2)cc1 [compound 53470415]	49.7	–	–	IC50 (E. coli K1 strain UTI89 [2]; [7]): 3.33 µM; IC50 (E. coli K1 strain UTI89 [1]; [8]): 17 µM
O=C(Nc1cc(-c2ccc(C(F)(F)F)cc2)sc1C(=O)O)c1ccc(Br)o1 [compound 53470416]	47.5	–	–	IC50 (E. coli K1 strain UTI89 [2]; [7]): 2.59 µM; IC50 (E. coli K1 strain UTI89 [1]; [8]): 12.3 µM
